Measurements as given in paper PMC8092912 (Antimicrobial Agents and Chemotherapy, 2021).
Where two headings read alike, the source gives them in different places.

How the values were obtained:
[1] = test system: HIV-1 WT; test: Antiviral activity against WT HIV-1 in the MT-2 cell line; assay type: cell-based; details: Human immunodeficiency virus 1, MT2
Excerpt: TABLE 1 Structure and antiviral activity of INSTIs in the MT-2 cell line | column: Antiviral activity against HIV-1, EC50 (nM)^b (fold change) / WT

[2] = test system: HIV-1 G140S+Q148H; test: Antiviral activity against G140S+Q148H HIV-1 in the MT-2 cell line; assay type: cell-based; details: for EC50: Human immunodeficiency virus 1, MT2; for Fold change of EC50, G140S+Q148H (reduced susceptibility): versus WT
[3] = biological target: T1, G140S+Q148H mutant HIV-1 IN-DNA complexes (Human immunodeficiency virus type 1 group M subtype B, UniProt P04585, G1287S/Q1295H); details: for Apparent t1/2, G140S+Q148H: 37°C, single exponential decay
Description: (§1) Data sets were analyzed using a single exponential decay equation as previously published for INSTIs ([3]).

[4] = test system: HIV-1 strain NL4.3 WT; test: Drug washout, viral replication (RT activity in culture supernatant) of WT virus in MT-2 cells; assay type: cell-based; details: for Time WT viral replication remained inhibited after washout: drug at 20 times IC90, washout 3 days postinfection; for WT viral replication after washout: drug at 20 times IC90, 4 days after washout
Description: (§2) We then washed away the inhibitors 3 days postinfection and quantified the reverse transcriptase activity in the culture supernatant to evaluate viral growth as described on washout days 0, 4, and 8 ([10], [11]). […] Longer experiments would be required to further differentiate BIC and DTG in washout experiments using WT virus.
(§3) Replication was assessed by measuring RT activity in culture supernatant without and after drug washout. Bar graphs, mean ± SEM. Statistical significance of drug washout with drug control conditions were assessed by adjusted P value with Tukey’s test: *, <0.05; ***, <0.001; and ****, <0.0001. For the washout experiments, BIC and EVG were synthesized at Gilead Sciences, Inc., DTG was purchased from Toronto Research Chemicals (ON, Canada), and RAL was provided by Merck, Inc.

[5] = test system: HIV-1 strain NL4.3 G140S+Q148H; test: Drug washout, viral replication (RT activity in culture supernatant) of G140S+Q148H virus in MT-2 cells; assay type: cell-based; details: for G140S+Q148H viral replication under constant drug pressure: drug at 20 times IC90, no washout
Description: as §2, §3
The G140S+Q148H mutations cause varied degrees of resistance to INSTIs.

[6] = test system: G140S+Q148H mutant HIV-1 IN-DNA complexes
Description: as §1

[7] = biological target: T2, WT HIV-1 IN-DNA complexes (Human immunodeficiency virus type 1 group M subtype B, UniProt P04585)
Description: as §1

[8] = biological target: T2, WT HIV-1 IN-DNA complexes; details: cited from earlier work
[9] = biological target: T1, G140S+Q148H mutant HIV-1 IN-DNA complexes; details: values in square brackets; cited from earlier work

Question: Which EC50 [1] does the source give for `O=C(NCc1c(F)cc(F)cc1F)c1cn2c(c(O)c1=O)C(=O)N1[C@H]3CC[C@H](C3)O[C@@H]1C2` [BIC, bictegravir] here?
Answer: Its EC50 is 1.5 ± 0.2 nM.

Question: What about the EC50 [2] of the same compound?
Answer: Its EC50 is 3.1 ± 0.8 nM.

Question: And the “Apparent t1/2, G140S+Q148H” value [3]?
Answer: The value was 5.7 ± 0.4 h.

Question: And the “Time WT viral replication remained inhibited after washout” value [4]?
Answer: The value was “at least 8 days”.

Question: And the “Suppression of the G140S+Q148H virus after washout” value ([5]; drug at 20 times IC90, after 8 days of washout)?
Answer: Its value is over 80%.

Question: What about the “G140S+Q148H viral replication under constant drug pressure” value [5] of the same compound?
Answer: Its value is “very low levels of replication”.

Question: For `O=C(NCc1ccc(F)cc1F)c1cn2c(c(O)c1=O)C(=O)N1[C@H]3CC[C@H](C3)O[C@@H]1C2` [Compound 1], which EC50 [1] is on record?
Answer: Its EC50 is 1.4 ± 0.5 nM.

Question: And the EC50 [2]?
Answer: The EC50 was 4.5 ± 1.8 nM.

Question: And the “Fold change of EC50, G140S+Q148H (reduced susceptibility)” value [2]?
Answer: The value was 3.2 fold.

Question: What about the “Apparent t1/2, G140S+Q148H” value [3] of the same compound?
Answer: The value was 4.8 ± 0.2 h.

Question: And the “Apparent t1/2, G140S+Q148H, fold change vs WT” value [6]?
Answer: The value was 32 fold.

Question: And the “koff, G140S+Q148H, fold change vs WT” value [6]?
Answer: Its value is 0.03 fold.

Question: And the “Apparent t1/2, WT” value ([7]; 37°C, single exponential decay)?
Answer: The value was 155 ± 25 h.

Question: What about the “koff, WT” value ([7]; 37°C, single exponential decay) of the same compound?
Answer: Its value is 1.3 ± 0.2 s^−1 (×10^−6).

Question: For `Cc1nnc(C(=O)NC(C)(C)c2nc(C(=O)NCc3ccc(F)cc3)c(O)c(=O)n2C)o1` [RAL, raltegravir], which EC50 [1] is on record?
Answer: Its EC50 is 9.4 ± 1.4 nM.

Question: What about the EC50 [2] of the same compound?
Answer: Its EC50 is 2460 nM.

Question: What about the “Binding to G140S+Q148H IN-DNA complexes for determination of dissociation kinetics” value [3] of the same compound?
Answer: The value was “insufficient level of binding”.

Question: And the “koff, WT” value [7]?
Answer: The value was 21 ± 6 [22 ± 2].

Question: What about the “Apparent t1/2, WT” value ([7]; recombinant enzyme) of the same compound?
Answer: The value was 10 ± 2 [8.8] h.

Question: What about the “WT viral replication after washout” value [4] of the same compound?
Answer: The value was “detectable viral replication”.

Question: And the “Apparent t1/2, WT” value [8]?
Answer: The value was 10 ± 2 [8.8] h.

Question: And the “koff, WT” value [8]?
Answer: Its value is 21 ± 6 [22 ± 2].

Question: And the “Apparent t1/2, G140S+Q148H” value [9]?
Answer: Its value is “ND [0.2] h”.

Question: What about the “koff, G140S+Q148H” value [9] of the same compound?
Answer: The value was “ND [1,130] s^−1 (×10^−6)”.

Question: With `C[C@@H]1CCO[C@H]2Cn3cc(C(=O)NCc4ccc(F)cc4F)c(=O)c(O)c3C(=O)N12` [DTG, dolutegravir] as the compound, how does the EC50 [1] read?
Answer: Its EC50 is 1.5 ± 0.2 nM.

Question: And the EC50 [2]?
Answer: Its EC50 is 6.5 ± 1.2 nM.

Question: What about the “Fold change of EC50, G140S+Q148H (reduced susceptibility)” value [2] of the same compound?
Answer: The value was 4.3 fold.

Question: What about the “Apparent t1/2, G140S+Q148H” value [3] of the same compound?
Answer: The value was 1.9 ± 0.2 h.

Question: And the “Apparent t1/2, G140S+Q148H, fold change vs WT” value [6]?
Answer: Its value is 51 fold.

Question: And the “koff, G140S+Q148H, fold change vs WT” value [6]?
Answer: The value was 0.02 fold.

Question: And the “Apparent t1/2, WT” value ([7]; 37°C, single exponential decay)?
Answer: Its value is 96 ± 29 h.

Question: And the “koff, WT” value ([7]; 37°C, single exponential decay)?
Answer: Its value is 2.2 ± 0.7 s^−1 (×10^−6).

Question: What about the “Time WT viral replication remained inhibited after washout” value [4] of the same compound?
Answer: The value was “at least 8 days”.

Question: And the “G140S+Q148H viral replication after washout” value ([5]; drug at 20 times IC90, 4 and 8 days after washout)?
Answer: Its value is “significant viral replication”.

Question: What about the “G140S+Q148H viral replication under constant drug pressure” value [5] of the same compound?
Answer: The value was “low replication”.

Question: And the “Apparent t1/2, WT” value ([8]; values in square brackets)?
Answer: The value was 71 h.

Question: What about the “koff, WT” value ([8]; values in square brackets) of the same compound?
Answer: Its value is 2.7 ± 0.4 s^−1 (×10^−6).

Question: And the “Apparent t1/2, G140S+Q148H” value [9]?
Answer: The value was 3.3 h.

Question: What about the “koff, G140S+Q148H” value [9] of the same compound?
Answer: Its value is 58 ± 8 s^−1 (×10^−6).

Question: Which EC50 [1] does the source give for `O=C(NCc1c(F)cc(F)cc1F)c1cn2c(c(O)c1=O)C(=O)N1[C@@H]3CC[C@@H](C3)O[C@H]1C2` [Compound 2] here?
Answer: Its EC50 is 1.5 ± 0.5 nM.

Question: And the EC50 [2]?
Answer: Its EC50 is 11.1 ± 0.5 nM.

Question: And the “Apparent t1/2, G140S+Q148H” value [3]?
Answer: The value was 1.7 ± 0.2 h.

Question: What does the source list for `COc1cc2c(cc1Cc1cccc(Cl)c1F)c(=O)c(C(=O)O)cn2[C@H](CO)C(C)C` [EVG, elvitegravir]?
Answer: EC50 [1]: 2.1 ± 0.9 nM; EC50 [2]: 868 ± 138 nM; WT viral replication after washout [4]: detectable viral replication
